Measurements as given in patent US12280037B2, “Method and pharmaceutical composition for treating or preventing trichomoniasis and uses thereof” (EVOFEM BIOSCIENCES, INC., priority 2020, dated 2025).
≈ marks a conversion by molar mass, not a printed value. Read-outs that look alike come from different tables or passages of the source. Blank lines part the entries; values can stand above or below the compound they belong to.

Columns and labels:
[1] = test system: clinical isolates of T. vaginalis; assay: Susceptibility testing, minimal lethal concentration (MLC), aerobic; type: cell-based, Trichomonas vaginalis
Description: Susceptibility testing was conducted with one hundred (100) clinical isolates of T. vaginalis.
Archived, de-identified, clinical isolates of T. vaginalis that were banked in liquid nitrogen were used for this study. The samples had been collected between July 2015 and June 2017, in accordance with institutional review board guidelines, and all patients had consented to the storage and use of their samples for subsequent testing. […] In brief, trichomonads were grown in Diamond's medium 1025 (containing trypticase soy broth, yeast extract, maltose, and calf serum) adjusted to pH 5.9 and supplemented with streptomycin at 1 g/liter and penicillin G at 100 U/ml. A hemocytometer was used to count the trichomonad population and to adjust it to a concentration of 66,666 cells/ml. Isolates were tested in microtiter plates under aerobic conditions. […] Plates were then incubated at 37° C. for 46 hours to 50 hours and read with a Zeiss Axiovert inverted microscope. The concentration of drug in the microplate wells in which no motile trichomonads were observed was reported as the MLC. […] Low-level resistance was defined as an aerobic MLC of 50 μg/ml to 100 μg/ml, moderate-level resistance as an aerobic MLC of 200 μg/ml, and high-level resistance as an aerobic MLC of >400 μg/ml. The MLCs for metronidazole and secnidazole were analyzed using the Wilcoxon signed-rank test to evaluate the differences between treatments.
Each well of a 96-well plate was filled with 150 μL of T. vaginalis suspension in Diamond's growth media (10^4 trichomonads). […] Cultures were visually assessed for survival, defined by observation of motility, through a 100× inverted microscope.

T. vaginalis = conditions: cited from earlier work; for Cure rates in randomized clinical trials of recommended regimens: CDC 2015 Guidelines - Trichomoniasis
[2] = CDC 2015 Guidelines - Trichomoniasis; cited from earlier work
[3] = EE2 plasma pharmacokinetics alone and with SYM-1219 2 grams (Example 2, Part B); type: in vivo, human
clinical = conditions: female, human, plasma, Mean (% CV); for AUC(0-t): NET AUC0-t; for AUC(0-inf): NET AUC0-∞; for Cmax: NET Cmax
[4] = 100 clinical T. vaginalis isolates
[5] = 100 clinical T. vaginalis isolates, aerobic, 46-50 h
[6] = meta-analysis of six published studies
[7] = Group B1 (SYM-1219 2 grams co-administered on Day 1)
[8] = Group B1: Period 2 (SYM-1219 2 grams same day) vs Period 1 (EE2/NET alone)
[9] = Group B1 Period 1: EE2/NET alone
[10] = Group B1 Period 2: EE2/NET followed by SYM-1219 2 grams on Day 1
[11] = Group B2 (EE2/NET 1 day after SYM-1219 2 grams)
[12] = Group B2: Period 2 (EE2/NET 1 day after SYM-1219 2 grams) vs Period 1 (EE2/NET alone)
[13] = Group B2 Period 1: EE2/NET alone
[14] = Group B2 Period 2: SYM-1219 2 grams on Day 1, EE2/NET on Day 2

Compound: Cc1ncc([N+](=O)[O-])n1CCO [metronidazole]
Isolates exhibiting moderate resistance (aerobic MLC 200 μg/ml) [1, 4]: 1% | Prevalence of low-level resistance (aerobic MLC 50 μg/ml to 100 μg/ml) [1, 4]: 7% | MLC, mean (±SD) among all isolates [1, 5]: 13.5 ± 26.9 µg/mL (≈ 78.9 µM) | MLC, median [1, 5]: 6.3 µg/mL (≈ 36.8 µM) | MLC in the one isolate with a higher MLC for secnidazole than for metronidazole ([1]; single clinical isolate): 1.6 µg/mL | Cure rates in randomized clinical trials of recommended regimens (T. vaginalis): 84%-98% | Cure rate for single dose treatment (T. vaginalis; HIV-positive women with trichomoniasis (Kissinger 2010)): 83.2% | Increase in treatment failures with single-dose 2-gram vs 7-day dose (500 mg twice daily) (T. vaginalis; HIV-uninfected, non-pregnant women, 2018 comparison study): 45% | Fewer treatment failures with 7 day-dose compared to single-dose (T. vaginalis; [6]): 46% | Test of cure (TOC) positive rates after single-dose (T. vaginalis; [6]): 6.2% to 18.0% | Half-life [2]: 7.3 h

Compound: CCS(=O)(=O)CCn1c([N+](=O)[O-])cnc1C [tinidazole]
Cure rates in randomized clinical trials of recommended regimens (T. vaginalis): 92%-100% | Half-life [2]: 12.5 h

Change in EE2 AUC [3, 7]: no change | EE2 Cmax reduced by [3, 7]: 29% | EE2 AUC0-t, Geometric LSMean % Ratio (SE), 100*Test/Reference [3, 8]: 94.26 (2.683) % | EE2 AUC0-∞, Geometric LSMean % Ratio (SE), 100*Test/Reference [3, 8]: 105.37 (4.565) % | EE2 Cmax, Geometric LSMean % Ratio (SE), 100*Test/Reference [3, 8]: 71.07 (4.951) % | EE2 AUC0-t, Mean (% CV) [3, 9]: 643.67 (23.85) h*pg/mL | EE2 Cmax, Geometric Least Squares (LS) Means (SE) [3, 9]: 77.92 (3.839) pg/mL | EE2 Cmax, Mean (% CV) [3, 9]: 80.63 (26.84) pg/mL | EE2 AUC0-t, Geometric Least Squares (LS) Means (SE) [3, 10]: 590.74 (11.892) h*pg/mL | EE2 Cmax, Geometric Least Squares (LS) Means (SE) [3, 10]: 55.38 (2.728) pg/mL | EE2 Cmax, Mean (% CV) [3, 10]: 59.88 (42.19) pg/mL | EE2 PK alteration [3, 11]: not altered | EE2 AUC0-t, Geometric LSMean % Ratio (SE), 100*Test/Reference [3, 12]: 99.04 (2.291) % | EE2 AUC0-∞, Geometric LSMean % Ratio (SE), 100*Test/Reference [3, 12]: 93.32 (3.570) % | EE2 Cmax, Geometric LSMean % Ratio (SE), 100*Test/Reference [3, 12]: 104.96 (4.034) % | EE2 AUC0-t, Geometric Least Squares (LS) Means (SE) [3, 13]: 649.96 (10.631) h*pg/mL | EE2 AUC0-t, Mean (% CV) [3, 13]: 680.48 (28.91) h*pg/mL | EE2 AUC0-t, Geometric Least Squares (LS) Means (SE) [3, 14]: 643.74 (10.529) h*pg/mL | EE2 Cmax, Geometric Least Squares (LS) Means (SE) [3, 14]: 87.16 (2.369) pg/mL
Compound: C#C[C@]1(O)CC[C@H]2[C@@H]3CCc4cc(O)ccc4[C@H]3CC[C@@]21C [EE2, ethinyl estradiol]

NET Cmax, AUC0-t or AUC0-∞ increased by (EE2/NET administered 1 day after SYM-1219): 9-16% | NET Cmax and AUC increased [7]: 13% | NET AUC0-t, Geometric LSMean % Ratio (SE), 100*Test/Reference [8]: 115.52 (5.828) % | NET AUC0-∞, Geometric LSMean % Ratio (SE), 100*Test/Reference [8]: 116.27 (6.032) % | NET Cmax, Geometric LSMean % Ratio (SE), 100*Test/Reference [8]: 113.18 (7.958) % | NET λz, Mean [9]: 0.07709 h⁻¹ | NET λz, Median [9]: 0.07966 h⁻¹ | NET t1/2, Median [10]: 9.12 h | NET λz, Mean [10]: 0.07886 h⁻¹ | NET λz, Median [10]: 0.07642 h⁻¹ | Change in NET AUC [11]: no change | NET Cmax increased by [11]: 16% | NET AUC0-t, Geometric LSMean % Ratio (SE), 100*Test/Reference [12]: 110.78 (4.104) % | NET AUC0-∞, Geometric LSMean % Ratio (SE), 100*Test/Reference [12]: 108.75 (4.207) % | NET Cmax, Geometric LSMean % Ratio (SE), 100*Test/Reference [12]: 116.46 (8.178) % | NET AUC0-∞, Median [13]: 47.35 ng·h/mL | NET t1/2, Median [13]: 9.29 h | NET λz, Mean [13]: 0.07369 h⁻¹ | NET λz, Median [13]: 0.07458 h⁻¹ | NET AUC0-t, Median [14]: 44.53 ng·h/mL | NET Cmax, Mean (% CV) [14]: 10.69 (48.34) ng/mL | NET Cmax, Mean (SD) [14]: 10.69 (5.169) ng/mL | NET Tmax, Median [14]: 1.000 h | NET t1/2, Median [14]: 9.19 h | NET λz, Mean [14]: 0.07685 h⁻¹ | NET λz, Median [14]: 0.07539 h⁻¹ | NET Cmax, AUC0-t or AUC0-∞ increased by (SYM-1219 administered immediately after EE2/NET): 13-16% | AUC(0-t) (clinical; [9]): 49.4 ng·h/mL | AUC(0-t) (clinical; [10]): 53.5 ng·h/mL | AUC(0-t) (clinical; [13]): 61.4 ng·h/mL | AUC(0-t) (clinical; [14]): 61.2 ng·h/mL | AUC(0-inf) (clinical; [9]): 57.8 ng·h/mL | AUC(0-inf) (clinical; [10]): 62.4 ng·h/mL | AUC(0-inf) (clinical; [13]): 75 ng·h/mL | AUC(0-inf) (clinical; [14]): 71.5 ng·h/mL | Cmax (clinical; [9]): 9.18 ng/mL | Cmax (clinical; [10]): 10.1 ng/mL | Cmax (clinical; [13]): 9.63 ng/mL
Compound: C#C[C@]1(O)CC[C@H]2[C@@H]3CCC4=CC(=O)CC[C@@H]4[C@H]3CC[C@@]21C [NET, norethindrone]
